Measured values published in patent US4312867A, “Antibacterial compounds, processes for their preparation and compositions containing them” (Beecham Group Limited, priority 1979, dated 1982).
Converted amounts (≈) assume the structure as drawn. Where two headings read alike, the source gives them in different places.

Experiments:
Format in all cases: cell-based
M alkalescens NCTC 10135 = assay: in vitro anti-mycoplasmal MIC, Friis' agar (Table 3)
Procedure: (§1) The minimum inhibitory concentrations (MIC) of the examples were determined by either:
(§2) or (ii) by serial dilution in Friis' agar medium.

M hyosynoviae ATCC 25591 = assay: as above
Procedure: as §1, §2

M synoviae ATCC 25204 = assay: as above
Procedure: as §1, §2

M pulmonis JB [1] = assay: as above
Procedure: as §1, §2

M pneumoniae ATCC 15492 [2] = assay: as above
Procedure: as §1, §2

M gallisepticum S6 = assay: as above
Procedure: as §1, §2

[3] = tested on: M bovigenitalium ATCC 14173; assay: as above
Procedure: as §1, §2

M hyorhinis ATCC 23234 = assay: as above
Procedure: as §1, §2

M pneumoniae 427a [4] = assay: as above
Procedure: as §1, §2

M arthritidis ATCC 14124 = assay: as above
Procedure: as §1, §2

M fermentans MWKL4 [5] = assay: as above
Procedure: as §1, §2

M pulmonis JB [6] = assay: in vitro anti-mycoplasmal MIC, Friis' broth (Table 3)
Procedure: as §1
(§3) (i) in Friis' broth using microtitre plates, by modification of the metabolic-inhibition test (Taylor-Robinson, Post Frad, Med. J., 1967, 43, 100).

M dispar NCTC 10125 = assay: as above
Procedure: as §1, §3

M pneumoniae ATCC 15492 [7] = assay: as above
Procedure: as §1, §3

M suipneumoniae Str 11 = assay: as above
Procedure: as §1, §3

M dispar H225 = assay: as above
Procedure: as §1, §3

M pneumoniae 427a [8] = assay: as above
Procedure: as §1, §3

[9] = tested on: M suipneumoniae J2206/183b; assay: as above
Procedure: as §1, §3

M fermentans MWKL4 [10] = assay: as above
Procedure: as §1, §3

[11] = tested on: M. suipneumoniae J2206/183b; assay: anti-mycoplasmal MIC, Friis broth solidified with agarose (Table 4); conditions: Mesomycoplasma hyopneumoniae, 144 h, 6 days at 37° C.
M. bovis NCTC 10131 = assay: microbe, parasite or virus in culture; conditions: NCTC10131, 144 h
[12] = tested on: M. suipneumoniae ATCC 25095; assay: anti-mycoplasmal MIC, Friis broth solidified with agarose (Table 4); conditions: Mesomycoplasma hyopneumoniae, ATCC25095, 144 h, 6 days at 37° C.
M. suipneumoniae JF435 = assay: as above; conditions: Mesomycoplasma hyopneumoniae
[13] = tested on: M. suipneumoniae PW/C/210; assay: as above; conditions: Mesomycoplasma hyopneumoniae, 144 h, 6 days at 37° C.
[14] = tested on: M. suipneumoniae NCTC 10110; assay: as above; conditions: Mesomycoplasma hyopneumoniae, NCTC10110, 144 h
M. suipneumoniae UCD1 = assay: as above; conditions: Mesomycoplasma hyopneumoniae, 144 h, 6 days at 37° C.
M. gallisepticum S6 = assay: as above; conditions: Mycoplasmoides gallisepticum
M. suipneumoniae TAM 6N = assay: as above; conditions: Mesomycoplasma hyopneumoniae, TAM6N, 144 h, 6 days at 37° C.
M. suipneumoniae NB12 = assay: as above; conditions: Mesomycoplasma hyopneumoniae
[15] = tested on: M. hyosynoviae ATCC 25591; assay: as above; conditions: 144 h
M. hyorhinis ATCC 23234 = assay: as above; conditions: Mesomycoplasma hyorhinis, ATCC23234, 144 h, 6 days at 37° C.
M. pneumoniae ATCC 15492 = assay: as above; conditions: Mycoplasmoides pneumoniae, ATCC15492, 144 h, 6 days at 37° C.
M. suipneumoniae Str. 11 = assay: as above; conditions: Mesomycoplasma hyopneumoniae
M. suipneumoniae LABER = assay: as above; conditions: Mesomycoplasma hyopneumoniae, 144 h, 6 days at 37° C.
M. suipneumoniae MS16 = assay: as above; conditions: Mesomycoplasma hyopneumoniae
B. subtilis ATCC 6633 = assay: MIC veterinary bacteria (Table 2), serial dilution in agar; conditions: diagnostic sensitivity test agar
M. dispar NCTC 10125 = assay: anti-mycoplasmal MIC, Friis broth solidified with agarose (Table 4); conditions: 144 h, 6 days at 37° C.
Procedure: The values were determined in Friis broth solidifed with 0.9% agarose. The inoculum was 10^3 to 10^5 CFV and the MIC's were recorded after 6 days incubation at 37° C.

[16] = tested on: M. bovigenitalium ATCC 14173; assay: as above; conditions: 144 h
M. hyorhinis ATCC 25021 = assay: as above; conditions: Mesomycoplasma hyorhinis, ATCC25021, 144 h, 6 days at 37° C.
Past haemolytica PA5 = assay: MIC veterinary bacteria (Table 2), serial dilution in agar; conditions: diagnostic sensitivity test agar

Row | Structure (SMILES) | MIC (M alkalescens NCTC 10135) [µg/mL] | MIC (M hyosynoviae ATCC 25591) [µg/mL] | MIC (M synoviae ATCC 25204) [µg/mL] | MIC (M pulmonis JB [1]) [µg/mL] | MIC (M pneumoniae ATCC 15492 [2]) [µg/mL] | MIC (M gallisepticum S6) [µg/mL] | MIC [3] [µg/mL] | MIC (M hyorhinis ATCC 23234) [µg/mL] | MIC (M pneumoniae 427a [4]) [µg/mL] | MIC (M arthritidis ATCC 14124) [µg/mL] | MIC (M fermentans MWKL4 [5]) [µg/mL] | MIC (M pulmonis JB [6]) [µg/mL] | MIC (M dispar NCTC 10125) [µg/mL] | MIC (M pneumoniae ATCC 15492 [7]) [µg/mL] | MIC (M suipneumoniae Str 11) [µg/mL] | MIC (M dispar H225) [µg/mL] | MIC (M pneumoniae 427a [8]) [µg/mL] | MIC [9] [µg/mL] | MIC (M fermentans MWKL4 [10]) [µg/mL] | MIC [11] [µg/mL] | also measured
1 | C/C(=C\C(=O)OCCCCCCCCS(N)(=O)=O)CC1OCC(CC2OC2C(C)C(C)O)C(O)C1O (stereo not drawn) [Example 3, 8-Sulphamoyloctyl monate A] | < 0.02 | 0.078 (≈ 0.146 µM) | < 0.02 | 0.039 (≈ 0.0728 µM) | 0.625 (≈ 1.17 µM) | 2.5 (≈ 4.67 µM) | < 0.039 | 0.312 (≈ 0.582 µM) | 0.312 (≈ 0.582 µM) | 5 (≈ 9.33 µM) | 0.039 (≈ 0.0728 µM) | 0.02 (≈ 0.0373 µM) | 0.02 (≈ 0.0373 µM) | 0.312 (≈ 0.582 µM) | 0.02 (≈ 0.0373 µM) | 0.02 (≈ 0.0373 µM) | 0.312 (≈ 0.582 µM) | 0.156 (≈ 0.291 µM) | 0.02 (≈ 0.0373 µM) |  | 
2 | C/C(=C\C(=O)OC(C)CCCCCS(N)(=O)=O)CC1OCC(CC2OC2C(C)C(C)O)C(O)C1O (stereo not drawn) [Example 5, 7-Sulphamoylhept-2-yl monate A] |  |  |  |  |  |  |  |  |  |  |  |  |  |  |  |  |  |  |  | 500 (≈ 958 µM) | MIC (M. bovis NCTC 10131): ≤ 10 µg/mL; MIC [12]: 250 µg/mL (≈ 479 µM); MIC (M. suipneumoniae JF435; 144 h, M. suipneumoniae JF435, 6 days at 37° C., read-out: MIC): 500 µg/mL (≈ 958 µM); MIC [13]: 250 µg/mL (≈ 479 µM); MIC ([14]; M. suipneumoniae NCTC 10110, 6 days at 37° C., read-out: MIC): 500 µg/mL (≈ 958 µM); MIC (M. suipneumoniae UCD1): 1000 µg/mL (≈ 1920 µM); MIC (M. gallisepticum S6; S6, 144 h): 2500 µg/mL (≈ 4790 µM); MIC (M. suipneumoniae TAM 6N): 500 µg/mL (≈ 958 µM); MIC (M. suipneumoniae NB12; 144 h, M. suipneumoniae NB12, 6 days at 37° C., read-out: MIC): 500 µg/mL (≈ 958 µM); MIC [15]: 100 µg/mL (≈ 192 µM); MIC (M. hyorhinis ATCC 23234): 250 µg/mL (≈ 479 µM); MIC (M. pneumoniae ATCC 15492): 1000 µg/mL (≈ 1920 µM); MIC (M. suipneumoniae Str. 11; STR.11, 144 h): 250 µg/mL (≈ 479 µM); MIC (M. suipneumoniae LABER): 250 µg/mL (≈ 479 µM); MIC (M. suipneumoniae MS16; MS16, 144 h): 250 µg/mL (≈ 479 µM); MIC (B. subtilis ATCC 6633): No Growth; MIC (M. dispar NCTC 10125): 100 µg/mL (≈ 192 µM); MIC ([16]; M. bovigenitalium ATCC 14173, 6 days at 37° C., read-out: MIC): 50 µg/mL (≈ 95.8 µM); MIC (M. hyorhinis ATCC 25021): 250 µg/mL (≈ 479 µM)
3 | C/C(=C\C(=O)OCCCCCCS(N)(=O)=O)CC1OCC(CC2OC2C(C)C(C)O)C(O)C1O (stereo not drawn) [Example 2, 6-Sulphamoylhexyl monate A] | < 0.02 | 0.039 (≈ 0.0768 µM) | < 0.02 | ≤ 0.02 | 0.625 (≈ 1.23 µM) | 2.5 (≈ 4.92 µM) | ≤ 0.02 | 0.156 (≈ 0.307 µM) | 0.312 (≈ 0.615 µM) | 5 (≈ 9.85 µM) | 0.039 (≈ 0.0768 µM) | < 0.02 | < 0.02 | 0.312 (≈ 0.615 µM) | ≤ 0.02 | < 0.02 | 0.312 (≈ 0.615 µM) | 0.156 (≈ 0.307 µM) | < 0.02 |  | 
4 | C/C(=C\C(=O)OCCCS(=O)(=O)N(C)C)CC1OCC(CC2OC2C(C)C(C)O)C(O)C1O (stereo not drawn) [Example 4, 3-N,N-Dimethylsulphamoylpropyl monate A] |  |  |  |  |  |  |  |  |  |  |  |  |  |  |  |  |  |  |  | 1000 (≈ 2030 µM) | MIC (M. bovis NCTC 10131): ≤ 10 µg/mL; MIC [12]: 500 µg/mL (≈ 1010 µM); MIC (M. suipneumoniae JF435; JF435, 144 h): 1000 µg/mL (≈ 2030 µM); MIC [13]: 500 µg/mL (≈ 1010 µM); MIC [14]: 1000 µg/mL (≈ 2030 µM); MIC (M. suipneumoniae UCD1): 1000 µg/mL (≈ 2030 µM); MIC (M. gallisepticum S6; 144 h, M. gallisepticum S6, 6 days at 37° C., read-out: MIC): > 10000 µg/mL; MIC (M. suipneumoniae TAM 6N): 1000 µg/mL (≈ 2030 µM); MIC (M. suipneumoniae NB12; NB12, 144 h): 500 µg/mL (≈ 1010 µM); MIC ([15]; M. hyosynoviae ATCC 25591, 6 days at 37° C., read-out: MIC): 250 µg/mL (≈ 506 µM); MIC (M. hyorhinis ATCC 23234): 250 µg/mL (≈ 506 µM); MIC (M. pneumoniae ATCC 15492): 5000 µg/mL (≈ 10100 µM); MIC (M. suipneumoniae Str. 11; 144 h, M. suipneumoniae Str. 11, 6 days at 37° C., read-out: MIC): 500 µg/mL (≈ 1010 µM); MIC (M. suipneumoniae LABER): 500 µg/mL (≈ 1010 µM); MIC (M. suipneumoniae MS16; 144 h, M. suipneumoniae MS16, 6 days at 37° C., read-out: MIC): 500 µg/mL (≈ 1010 µM); MIC (B. subtilis ATCC 6633): No Growth; MIC [16]: 50 µg/mL (≈ 101 µM); MIC (M. hyorhinis ATCC 25021): 250 µg/mL (≈ 506 µM); MIC (Past haemolytica PA5): 10 µg/mL (≈ 20.3 µM)
